SMILES strings stand for the structures.

One assay has as its target T1, SCP2 (Homo sapiens, UniProt P22307).
T1 construct: H460 cells or H460 cells expressing luciferase in a 10 cm plate were incubated with indicated compounds; endogenous in cells; host or cells: H460
Description: isoTOP-ABPP of compound-treated H460 cells: SCP2. The assay is classed as cell-based. Particulars: SCP2 C94; 40 μM. The protocol: For analysis of NR0B1 ligands or control compound reactivity, H460 cells or H460 cells expressing luciferase in a 10 cm plate were incubated with indicated compounds in serum/dye-free RPMI for 3 hours at 37° C. Cells were washed once ice-cold PBS and lysed in 1% Triton X-100 dissolved in PBS with protease inhibitors (Sigma) by sonication. Samples were clarified by centrifugation for 10 min at 16,000×g. Lysate was adjusted to 1.5 mg ml^−1 in 500 μL.
Samples were labeled for 1 h at ambient temperature with 100 μM iodoacetamide alkyne (1, IA-alkyne, 5 μL of 10 mM stock in DMSO). Samples were conjugated by copper-catalyzed azide-alkyne cycloaddition (CuAAC) to isotopically labeled, TEV-cleavable tags (TEV-tags). Heavy CuAAC reaction mixtures was added to the DMSO-treated or shGFP control samples and light CuAAC reaction mixture was added to compound-treated or shNRF2 samples. The CuAAC reaction mixture consisted of TEV tags (light or heavy, 10 μL of 5 mM stocks in DMSO, final concentration=100 μM), 1 mM tris(2-carboxyethyl)phosphine hydrochloride (TCEP; fresh 50× stock in water, final concentration=1 mM), ligand (17× stock in DMSO:t-butanol 1:4, final concentration=100 μM) and 1 mM CuSO4 (50× stock in water, final concentration=1 mM). The samples were allowed to react for 1 h at which point the samples were centrifuged (16,000×g, 5 min, 4° C.). […]

Another assay addresses T2, TXN (Homo sapiens, UniProt P10599).
T2 construct: H460 cells or H460 cells expressing luciferase in a 10 cm plate were incubated with indicated compounds; endogenous in cells; host or cells: H460
Put plainly: ABPP-SILAC BPK-29yne competition in H460 cells: TXN. The assay is classed as cell-based. Conditions: 20 μM. The protocol:
Isotopically labeled H460 cell lines were generated as described above. Light and heavy cells were treated with compounds (20 μM) or DMSO, respectively, for 3 h, followed by labeling with the BPK-29yne (5 μM) for 30 min. Cells were washed once ice-cold PBS and lysed in 1% Triton 100-X dissolved in PBS with protease inhibitors (Sigma) by sonication. Lysate was adjusted to 1.5 mg ml^−1 in 500 μL. Samples were conjugated by CuAAC to Biotin-PEG4-azide (5 μL of 10 mM stocks in DMSO, final concentration=100 μM). CuAAC “click” mix contained TCEP, TBTA ligand and CuSO4 as detailed for isoTOP-ABPP sample preparation. Samples were further processed as detailed in: isoTOP-ABPP streptavidin enrichment and isoTOP-ABPP trypsin TEV digestion with the following exception: after overnight incubation at 37° C. with trypsin, tryptic digests were separated from the beads with Micro Bio-Spin columns (Bio-Rad) by centrifugation (1,000×g, 1 min). Beads were rinsed once with water (200 μL) and combined with tryptic digests. […]
The MS2 spectra data were extracted and searched using RAW Convertor and ProLuCID algorithm as described in isoTOP-ABPP peptide and protein quantification. […] Ratios of heavy/light (DMSO/test compound) peaks were calculated using in-house CIMAGE software. […] The mean R values and standard deviation for multiple biological experiments were calculated from the average ratios from each replicate. […]

T1 sequence (P22307 whole entry): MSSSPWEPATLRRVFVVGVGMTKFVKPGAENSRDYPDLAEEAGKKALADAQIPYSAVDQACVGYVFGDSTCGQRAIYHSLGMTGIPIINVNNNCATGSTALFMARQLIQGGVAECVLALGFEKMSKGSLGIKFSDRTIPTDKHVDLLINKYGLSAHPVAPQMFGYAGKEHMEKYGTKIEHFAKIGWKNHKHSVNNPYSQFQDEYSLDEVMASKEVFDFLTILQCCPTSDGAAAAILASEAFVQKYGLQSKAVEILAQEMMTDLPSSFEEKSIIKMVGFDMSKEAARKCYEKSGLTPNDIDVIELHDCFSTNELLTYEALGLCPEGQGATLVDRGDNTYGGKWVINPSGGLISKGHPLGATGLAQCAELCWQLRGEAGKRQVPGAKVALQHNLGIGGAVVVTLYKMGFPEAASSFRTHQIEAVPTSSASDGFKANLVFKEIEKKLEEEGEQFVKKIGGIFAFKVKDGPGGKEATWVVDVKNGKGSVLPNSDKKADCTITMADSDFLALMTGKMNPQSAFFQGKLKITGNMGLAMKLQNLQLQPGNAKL
T2 sequence (P10599 whole entry): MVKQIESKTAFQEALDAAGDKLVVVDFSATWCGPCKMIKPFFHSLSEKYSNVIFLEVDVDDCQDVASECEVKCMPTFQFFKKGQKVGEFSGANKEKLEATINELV

With `O=C(c1ccc(N2CCOCC2)cc1)N1CCCC(N(Cc2ccccc2)C(=O)CCl)CC1` (centres unmarked) [BPK-29, N-benzyl-2-chloro-N-(1-(4-morpholinobenzoyl)azepan-4-yl)acetamide], the “BPK-29-competed isoTOP-ABPP analysis” value at SCP2 is given as “Yes (Competed defined as showing R value ≥ 3.0 at 40 μM of test compound)”. Further, the “BPK-29-competed BPK-29yne analysis” value at TXN was “Yes (Competed defined as showing R value ≥ 2.5 at 20 μM of test compound)”.

Values taken from patent US20200278355A1, “CONJUGATED PROTEINS AND USES THEREOF” (THE SCRIPPS RESEARCH INSTITUTE, priority 2017, published 2020).
